According to US20250011296A1, “MODULATORS OF MOLECULAR TARGETS EXPRESSED IN METABOLIC AND INFLAMMATORY DISORDERS” (Ohio State Innovation Foundation, priority 2021, published 2025):
“Also recorded” adds a separate entry of the source. Where two headings read alike, the source gives them in different places.

Legend:
NFκB = target: T1, NFκB (Homo sapiens, UniProt Q04206); assay: NFκB assay (EZ-Detect Transcription Factor Assay kit; TNF-α-treated HeLa cells, nuclear extracts); format: cell-based
T1 construct: endogenous in cells; host or cells: HeLa cells (ATCC), nuclear extract
Description: To assess the ability of natural product extracts and compounds to inhibit the specific binding of activated NFκB transcription factor to the biotinylated consensus sequence, the EZ-Detect™ Transcription Factor Assay kit (Pierce Biotechnology) was used according to the kit manual and established protocol. HeLa cells (ATCC) were treated with each test sample and TNF-α, nuclear extracts harvested using the NE-PER kit (Pierce Biotechnology), and protein content equilibrated using the Pierce BCA Protein Assay kit (Pierce Biotechnology). Specific binding was detected through quantification of chemiluminescent signal in a plate reader (FLUOstar Optima, BMG Labtechnologies GmbH, Inc.).

PPAR-γ = target: T2, PPAR-γ (Homo sapiens, UniProt P37231); assay: PPAR-γ ELISA assay (PPAR-α,γ,δ Complete Transcription Factor Assay Kit; CCD-112CoN or Hela cells, nuclear extracts); format: cell-based
T2 construct: endogenous in cells; host or cells: CCD-112CoN normal colon cells or HeLa cells (ATCC), nuclear extract
T2 sequence (P37231 1-505): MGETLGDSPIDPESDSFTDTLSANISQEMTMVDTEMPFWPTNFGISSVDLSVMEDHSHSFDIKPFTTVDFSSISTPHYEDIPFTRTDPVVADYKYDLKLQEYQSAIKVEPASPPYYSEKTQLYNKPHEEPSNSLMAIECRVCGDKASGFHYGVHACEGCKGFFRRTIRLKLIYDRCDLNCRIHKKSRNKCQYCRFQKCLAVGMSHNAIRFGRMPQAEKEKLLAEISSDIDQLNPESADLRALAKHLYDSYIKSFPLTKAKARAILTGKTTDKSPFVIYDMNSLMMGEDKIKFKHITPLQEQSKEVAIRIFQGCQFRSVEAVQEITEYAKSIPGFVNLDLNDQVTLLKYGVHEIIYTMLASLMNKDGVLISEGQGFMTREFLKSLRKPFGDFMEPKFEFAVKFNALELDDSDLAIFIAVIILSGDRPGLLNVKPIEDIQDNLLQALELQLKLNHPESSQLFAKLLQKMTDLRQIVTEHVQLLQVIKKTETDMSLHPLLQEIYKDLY
Description: To evaluate the ability of natural product extracts and compounds to induce specific binding of PPAR-γ transcription factor in nuclear extracts to immunosorbed peroxisome proliferator response element, the PPAR-α,γ,δ Complete Transcription Factor Assay Kit (Cayman Chemical Company) was used according to the kit protocol. 303 CCD-112CoN normal colon cells or Hela cells (ATCC) were treated with mace extracts or isolated compounds for 24 h, nuclear extracts were harvested using the NE-PER kit (Pierce Biotechnology), and protein content equilibrated using the Pierce BCA Protein Assay kit (Pierce Biotechnology). Specific binding was detected through quantification of absorptivity at 630 nm in a BioTek uQuant microplate reader (BioTek Instruments, Inc.). […] Licarin A derivatives 45-48 were screened through the panel of in vitro assays to evaluate their potential as antidiabetic compound leads. […] Methods for the assay were as described above.

[1] = system: HbA1C (glycated hemoglobin) expression; assay: Larval diabetic zebrafish assay, Western blot of HbA1C; format: in vivo; details: diabetic zebrafish larvae, 10 μM
Description: Following isolation, derivatization, and analysis of compounds 41-48 through the in vitro panel of assays, the mace natural products and licarin A derivatives were investigated in the larval diabetic zebrafish assay for potential antidiabetic activity. Western blot analysis of zebrafish expression levels for glycated hemoglobin, metabolic enzymes, and molecular targets NFκB and PPAR-γ was performed to evaluate potential lead improvement and to discover possible mechanisms of action.
(§1) Wild-type zebrafish were sorted into 24-well microplates with 10 fish per well for a four-phase treatment cycle. At 72 hpf, type 2 diabetes was induced by administering 0.5 mg/mL alloxan in fish water for percutaneous absorption. After three hours of alloxan treatment, phase two of the treatment cycle was initiated by administering 10 μM doses of natural product compounds 41-43 (FIG. 4) or derivatives 45-48 (FIG. 6) with 0.01% DMSO in system water. At 78 hpf, the incubation solution was changed to 10 mg/ml D-glucose for 30 minutes, followed by a phase-four rinse in fresh system w Following the four-phase treatment cycle, zebrafish treatment groups were snap frozen in microcentrifuge tubes on dry ice, stored overnight at −80° C., thawed, and homogenized with 2 μL PBS per animal. Following centrifugation (60 minutes at 4° C. and 17,000 rpm), protein content of the homogenate supernatant was determined using the Pierce BCA Protein Assay kit (Pierce Biotechnology). Homogenates were analyzed by Western blot with equal amounts of total protein (20 μg) in each sample and using 4×LDS loading buffer (NuPAGE Life Technologies). The immunoblot samples were heated at 95° C. for 5 minutes and loaded onto NuPAGE Bis-Tris 4-12% gradient SDS-PAGE gels.
(§2) Electrophoresis was performed with NuPAGE MES SDS Running Buffer and using the XCell SureLock Mini-Cell Electrophoresis System (Life Technologies). Proteins separated on the gel were transferred to a PVDF membrane using TBST buffer. The blots were blocked in 3% BSA in TBST and subsequently probed overnight with primary antibodies (1:1000 in 1% BSA in TBST) against each target of interest. Following TBST rinses, secondary HRP-conjugated antibodies (1:2000) were applied to the membrane for 60 minutes. The HRP conjugated antibodies were detected using SuperSignal West Femto chemiluminescent substrate (Pierce Biotechnology) and immunoblot images were captured using the luminometer and Lumi Analyst 3.0 software.
(§3) Band densities were determined using ImageJ Gel Analysis to determine expression levels of each protein of interest. Expression levels of HbA1C, PPAR-γ, and NFκB were organized into a bar graphs (FIG. 5) with band densities calculated in comparison to the housekeeping gene β-actin, normalized to the untreated diabetic group (B) of zebrafish. […].

PPAR-γ expression = assay: Larval diabetic zebrafish assay, Western blot of PPAR-γ; format: in vivo; details: diabetic zebrafish larvae, 10 μM
Description: Western blot analysis of zebrafish expression levels for glycated hemoglobin, metabolic enzymes, and molecular targets NFκB and PPAR-γ was performed to evaluate potential lead improvement and to discover possible mechanisms of action.
as §1, with “After three hours of alloxan treatment, phase two of the treatment cycle was initiated by administering 10 μM doses of natural product compounds 41-43 (FIG. 4) or derivatives 45-48 (FIG. 6) with 0.01% DMSO in system water.” left out, “Technologies).” for “Technologies). The immunoblot samples were heated at 95° C. for 5 minutes and loaded onto NuPAGE Bis-Tris 4-12% gradient SDS-PAGE gels.”
as §2, §3

[2] = Table 20 summary, read-out: NFκBIC50
[3] = preliminary Western blot (FIG. 5), not in replicate
[4] = preliminary Western blot (FIG. 4/5)

T1 sequence (Q04206 whole entry): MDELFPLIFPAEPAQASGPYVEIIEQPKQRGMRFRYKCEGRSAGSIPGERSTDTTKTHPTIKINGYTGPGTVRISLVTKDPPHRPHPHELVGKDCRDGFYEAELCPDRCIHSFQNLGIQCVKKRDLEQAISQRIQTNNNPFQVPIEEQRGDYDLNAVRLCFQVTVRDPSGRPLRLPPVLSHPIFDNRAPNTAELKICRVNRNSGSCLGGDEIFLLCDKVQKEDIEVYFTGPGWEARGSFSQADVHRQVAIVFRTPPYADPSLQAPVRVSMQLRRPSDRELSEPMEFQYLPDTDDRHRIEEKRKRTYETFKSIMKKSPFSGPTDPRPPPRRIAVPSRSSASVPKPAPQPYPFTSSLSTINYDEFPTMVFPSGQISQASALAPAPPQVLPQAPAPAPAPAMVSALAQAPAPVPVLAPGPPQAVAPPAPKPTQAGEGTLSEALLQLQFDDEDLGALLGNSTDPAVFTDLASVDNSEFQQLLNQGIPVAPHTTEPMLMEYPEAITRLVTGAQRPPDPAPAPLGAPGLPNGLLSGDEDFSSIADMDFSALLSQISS

| IC50 (NFκB; [2]) [nM] | IC50 (NFκB; in vitro NFκB assay) [nM] | PPAR-γ % activation (PPAR-γ; Table 14, isolates at 50 μg/mL) [%] | PPAR-γ % activation (PPAR-γ; Table 20 summary, 50 μg/mL) [%] | IC50 (NFκB; Table 13, tested at 50, 5, 0.5 and 0.05 μg/mL) [nM] | PPAR-γ activity, % as active/effective as positive control rosiglitazone (PPAR-γ; 50 μg/mL) [%] | PPAR-γ activity in vitro (PPAR-γ; preliminary screening, 50 μg/mL) | SMILES | HbA1C expression (band density) [1, 3] | PPAR-γ expression (band density) (PPAR-γ expression; [4]) | HbA1C expression (band density) ([1]; duplicate Western blot (FIG. 7)) | PPAR-γ expression (band density) (PPAR-γ expression; duplicate Western blot (FIG. 8)) |
| --- | --- | --- | --- | --- | --- | --- | --- | --- | --- | --- | --- |
| 479 | 475 | 45 | 45 |  |  |  | C/C=C/c1cc(OC)c2c(c1)[C@H](C)[C@@H](c1ccc3c(c1)OCO3)O2 [Compound 41, licarin B] | HbA1C levels even lower than those treated with the thiazolidinedione rosiglitazone; also recorded: excellent hypoglycemic effect | did not upregulate PPAR-γ expression |  |  |
| 30.6 | 30.6 | 81 | 81 | 30.6 | 81 | moderate PPAR-Y activity | C/C=C/c1cc(OC)c2c(c1)[C@H](C)[C@@H](c1ccc(O)c(OC)c1)O2 [Compound 42, licarin A] | least effective of the three natural products at reducing HbA1C expression | greater PPAR-γ expression that 41 | most effective test samples for decreasing HbA1C | reliably intermediate between the rosiglitazone-treated and untreated diabetic groups |
